Results: US20250134902A1, “DRUG REPURPOSING FOR DELAYED TREATMENT OF ISCHEMIC STROKE” (UNIVESRITY OF NORTH TEXAS HEALTH SCIENCE CENTER, priority 2022, published 2025)
Entries after “also recorded” stand apart in the source; their conditions may differ.

Key:
[1] = Pharmacokinetics of per oral oxeladin in plasma and brain; format: in vivo, rat; conditions: for time after dosing at which detected in brain / time after dosing at which detected in plasma: rat, 135 mg/kg
Procedure: Evaluating the pharmacokinetics of Sigma receptor agonists. […] Whole blood was harvested into EDTA coated tubes at 30, 60, 120, 240, 720, and 1440 minutes from rats following euthanasia by CO2 inhalation. Plasma was processed from whole blood by centrifugation for 10 min at 10,000 rpm and frozen at −80° C. until assayed. The brains were collected, weighed, snap frozen in liquid nitrogen, and stored at −80° C. until processed.
For standards, 98 μl blank plasma was added to an Eppendorf tube spiked with 2 μl of […] (IS). For QCs, add 98.8 μl blank plasma was added to an Eppendorf tube spiked with 1.2 μl of IS. 100 μl plasma was mixed with 200 μl of acetonitrile containing 0.15% formic acid and 37.5 ng/ml IS (IS final conc.=25 ng/ml), and 100 microliters brain homogenized solution was mixed with 200 microliters of acetonitrile containing 0.15% formic acid and 60 ng/ml IS (IS final conc.=40 ng/ml). The samples were vortexed 15 sec, incubated at room temp for 10 min and spun 2×13,200 rpm in a standard microcentrifuge. The supernatant was then analyzed by LC/MS/MS (QTRAP® 3200) according to the following parameters:
Ion Source/Gas Parameters: CUR=25, CAD=medium, IS=5000, TEM=700, GS1=70, GS2=70.
Buffer A: Water+0.1% formic acid; Buffer B: ACN+0.1% formic acid; flow rate 1.5 ml/min; column Agilent Eclipse XDB-C18 column, 5 micron packing 50×4.6 mm size; 0-1.5 min 3% B, 1.5-2.0 min gradient to 100% B, 2.0-3.5 min 100% B, 3.5-3.6 min gradient to 3% B, 3.6-4.5 3% B. IS: n-benzylbenzamide (Sigma-Aldrich, lot #02914LH, in ACN, transition 212.1 to 91.1); Compound transition 336.127/100.1.

[2] = system: rat blood; assay: Clotting (streak) assay of thrombotic potential
Procedure: Clotting assays. Thrombotic potential was assessed with trunk blood from donor rats using a protocol modified from Kim et al. (Kim et al., 2010). Oxeladin was compared to whole blood with or without the anticoagulant benzamidine and several other S1R ligands at doses 10× greater than those that stimulate the release of BDNF (Dalwadi et al., 2022; Dalwadi et al., 2017). Blood was rapidly collected into chilled, pre-weighed plastic tubes containing a known quality of EDTA disodium salt (>3.7 mM) electrostatically-coated onto the tube wall. Blood was prevented from coagulating by gently swirling the chilled EDTA-coated tube. The tube was weighed and the volume of collected blood calculated in order to compute the exact concentration of EDTA in the uncoagulated blood sample allowing us to determine which concentration of calcium to add back into the blood to initiate coagulation. Uncoagulated blood samples were stored chilled. The following was be dispensed into NUNC™ MICROWELL™ MiniTrays: 8 μL/well of normal saline containing a concentration of calcium 1.2 mM higher than that of the concentration of EDTA in the blood sample, 1 μL/well of oxeladin, 3 mM benzamidine anticoagulant positive control, or untreated or vehicle negative controls, and 1 μL/well of (EDTA-treated) uncoagulated rat blood. Plates were tilted at a 45° angle at 5, 15, 30, 45 and 60 minutes to observe coagulation (i.e., no streaking) and compared to the controls. Each triplicate well was scored by a treatment-blinded observer as Yes (coagulation, no streaking) or No (no coagulation, streaking). The experiment was repeated with two separate donor rats.
Referring to FIG. 5, the effect on thrombotic activity of test drugs, benzamidine anticoagulant positive control, or untreated or vehicle negative controls on whole blood from donor rats was assessed by tilting treated blood samples at a […] to observe coagulation (i.e., no streaking) between […] (top panel). Blood coagulation was represented by a value between 1 (no streaking, coagulation) and 0 (streaking, less or no coagulation), and values were assigned for each test drug, benzamidine, and untreated and vehicle controls (bottom panel). Quantitative results from these clotting assays, including coagulation half-life, are summarized below in Table 5.

[3] = system: BDNF; assay: Steady-state BDNF in brain homogenates by ELISA (rats of the maximum tolerated dose study); format: in vivo, rat; conditions: 135 mg/kg p.o., ten days
Procedure: Actions of oxeladin on BDNF in the brain. […] Cerebral cortex and hippocampal samples were homogenized in TBS supplemented with 0.1% NP-40 detergent and protease inhibitor cocktail. Protein concentrations were determined with a PIERCE® BCA assay (ThermoPierce). Samples were diluted 1:20 and assayed in triplicate according to manufacturer's instructions and assayed a FLEXSTATION® 3 plate reader (Molecular Devices, Sunnyvale, CA).

[4] = Maximum tolerated dose, oral gavage 10 days; format: in vivo
Procedure: Measuring the maximum tolerated dose of Sigma receptor agonists. Male Sprague-Dawley rats (2-3 per dose) were treated by oral gavage with 6, 18, 54, 108, 135 or 150 mg/kg as estimated from in vitro functional assays and estimates of human intake when used as an antitussive. Rats received a single daily dose for 10 days. Weight, water intake, and food intake were measured daily, and rats were assessed for somnolence, activity, sensitivity to touch, and taste aversion. At the conclusion of the study, rats were humanely euthanized and brain tissue was collected and flash frozen.

[5] = system: BDNF; assay: BDNF western blot in ischemic penumbra after tMCAO; format: in vivo, rat; conditions: single dose 135 mg/kg 48 hours after tMCAO; P=0.02
Procedure: Rats were sacrificed under isoflurane anesthesia 2, 6, or 24 hours after dosing, and brains were removed to assess protein expression in the ischemic and contralateral cortex by immunoblotting. Brains were rapidly removed, chilled for 2 min in ice-cold saline, and sliced into 2 mm coronal slices with a brain matrix for rapid 2,3,5 triphenyltetrazolium chloride (TTC) staining. Sections were immersed in 1% TTC for 1 minute at room temperature to reveal the extent of the infarct. Cortical penumbra tissue was collected, snap frozen, and stored at −80° C. for subsequent western blotting. Protein was extracted from tissue using T-PER™ reagent with HALT protease inhibitor (Thermo-Pierce), and concentrations were determined with the PIERCE® BCA assay (Thermo-Pierce). Protein was separated on 4-20% SDS-PAGE gels (BioRad) and transferred to nitrocellulose. Blots were probed with primary antibodies for BDNF (Abcam ab226842; 1:1000) and goat anti-rabbit-HRP secondary (Thermo 32260; 1:10,000). Bands were visualized by ECL with PIERCE® SUPERSIGNAL® West Dura Femto (Thermo-Pierce) reagent using a UVP EpiChemi3. Density was assessed with Image J and normalized to β-actin (Thermo MA1-91399; 1:1000).

[6] = 135 mg/kg p.o., listed as oxeladin

For `CCN(CC)CCOCCOC(=O)C(CC)(CC)c1ccccc1` [Oxeladin], the “half-life, brain” value ([1]; rat brain, 135 mg/kg oral gavage (figure legend)) was “greater than 4 hours”, the “AUClast, brain” value ([1]; rat brain, 135 mg/kg p.o.) was 423726 ng·min/g and the “Terminal T1/2 (terminal elimination half-life), brain” value ([1]; rat brain, 135 mg/kg p.o.) was 5.32 h. For the same compound, the “Tmax (time to obtain maximum concentration), brain” value ([1]; rat brain, 135 mg/kg p.o.) was 0.5 h, the “half-life, plasma” value ([1]; rat plasma, 135 mg/kg oral gavage (figure legend)) was “greater than 4 hours” and the “AUClast, plasma” value ([1]; rat plasma, 135 mg/kg p.o.) was 122293 ng·min/mL. For the same compound, the “Terminal T1/2 (terminal elimination half-life), plasma” value ([1]; rat plasma, 135 mg/kg p.o.) was 4.15 h, the “Tmax (time to obtain maximum concentration), plasma” value ([1]; rat plasma, 135 mg/kg p.o.) was 0.5 h and the “time after dosing at which detected in brain” value ([1]; 135 mg/kg p.o.) was at most 30 min. The “time after dosing at which detected in plasma” value ([1]; 135 mg/kg p.o.) was at most 30 min, the “time after dosing at which detected in brain” value [1, 6] was 30 min and the “time after dosing at which detected in plasma” value [1, 6] was 30 min. For the same compound, the “effect on thrombosis in blood” value [2] was “do not alter thrombosis”, the “BDNF levels in the hippocampus (ELISA)” value [3] was “not in the hippocampus” and the “BDNF levels in the cerebral cortex (ELISA)” value ([3]; P<0.05) was “significant increase; also recorded: significantly increase”. For the same compound, the “mortality or overt toxicity” value ([4]; 6-150 mg/kg daily oral gavage, 10 days, male rats) was “no mortality or overt toxicity observed”, the well-tolerated dose ([4]; rat, in vivo, po) was at least 150 mg/kg and the “ratio of mature 17 kDa BDNF to 42 kDa pro-BDNF in the ischemic penumbra” value [5] was “significantly increased”.
